Assay results from patent US20050250826A1, “Compounds, compositions, processes of making, and methods of use related to inhibiting macrophage migration inhibitory factor” (priority 2004, published 2005).

Experiments:
carageenin-induced edema = details: rat paw; compared to parent compound unsubstituted in the para position of the phenyl ring; Curuzu et al. 1991; cited from earlier work
recombinant human MIF = target: T1, recombinant human MIF (Homo sapiens, UniProt P14174); experiment: MIF dopachrome tautomerase assay; type: biochemical; details: dose-dependent inhibition
T1 construct: made in house; host or cells: E. coli
T1 sequence (P14174 2-115 limits assumed): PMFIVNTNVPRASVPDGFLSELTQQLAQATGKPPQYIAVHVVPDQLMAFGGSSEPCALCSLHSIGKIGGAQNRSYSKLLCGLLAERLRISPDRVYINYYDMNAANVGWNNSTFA
Excerpt: The compounds of Formula I or II are identified as MIF inhibitors because they inhibit MIF enzymatic activity in vitro. […] This reaction predicts therapeutic MIF inhibitors (see U.S. Pat. No. 6,420,188 and U.S. Pat. No. 6,599,938, the disclosures of which are incorporated herein by reference in their entirety). Inhibition of MIF tautomerase activity is predictive of inhibition of MIF biological activity.
A method for performing an assay for MIF dopachrome tautomerase activity begins with the preparation and oxidation of a DOPA-related substrate precursor, such as L-3,4-dihydroxyphenylalanine methyl ester. […] The absorbance is measured at about 475 nm (or 550 nm for substrate concentrations in excess […]). A test compound may be included in the assay solution such that the effect of the test compound on MIF tautomerase activity (i.e., as an inhibitor) may be measured by noting the change in kinetics of substrate tautomerization compared to control assays performed in the absence of the test inhibitor compound. […]
L-3,4-dihydroxyphenylalanine methyl ester (e.g., Sigma D-1507) is a dopachrome substrate precursor, and is prepared as a 4 mM solution in dd H2O Sodium periodate is prepared as an 8 mM solution in dd H2O. […] Inhibition of MIF tautomerase activity by the test compounds is determined by inhibition of the de-colorization of the assay mixture, often at the 20 sec time point. […]

Row | SMILES | anti-inflammatory activity (carageenin-induced edema) | IC50 (recombinant human MIF) [µM] | also measured
1 | O=C(O)CC1CC(c2ccc(O)cc2)=NO1 (centres unmarked) [3-(4-hydroxyphenyl)-4,5-dihydro-5-isoxazolineacetic acid] | devoid of anti-inflammatory activity |  | 
2 | COc1ccc(C2=NOC(CC(=O)O)C2)cc1 (centres unmarked) [3-(4-methoxyphenyl)-4,5-dihydro-5-isoxazolineacetic acid] | dramatically reduced |  | 
3 | CCOC(=O)C(C)CC1CC(c2ccc(O)cc2)=NO1 (centres unmarked) [Compound 32] |  |  | melting point: 192 to 194 °C
4 | O=C(CC1CC(c2ccc(O)cc2)=NO1)N1CCCC1 (centres unmarked) [Compound 68] |  | ~10 | 
5 | O=C(CC1CC(c2ccc(O)cc2)=NO1)N1CCOCC1 (centres unmarked) [Compound 69] |  | ~10 | 
